{"source": "patent US7989441B2", "about": "“Organic compounds” (Novartis AG, priority 2005, dated 2011)", "key": {"[1]": {"tested_on": "GST-BIR3 fusion protein (BIR3 peptide binding pocket)", "experiment": "FMAT solution phase assay: competition of GST-BIR3 off Smac peptide beads", "procedure": "(§1) In order to measure the ability of the inventive compounds to bind the BIR3 peptide binding pocket, a solution phase assay on the FMAT or ELISA technology platform is utilized.\nBiotinylated Smac 7-mer peptide (AVPIAQK, lysine ε-amino group is biotinylated) is immobilized on streptavidin coated beads. GST-BIR3 fusion protein is precipitated with FMAT beads and is detected using fluorescent tagged anti-GST antibodies. […] The IC50 for non-biotinylated Smac is 400 nM."}, "[2]": {"target": "T1, GST-BIR3 fusion containing amino acids 248-358 from XIAP (Homo sapiens, UniProt P98170)", "T1 construct": "a GST-BIR3 fusion containing amino acids 248-358 from XIAP was used", "T1 sequence (P98170 248-358)": "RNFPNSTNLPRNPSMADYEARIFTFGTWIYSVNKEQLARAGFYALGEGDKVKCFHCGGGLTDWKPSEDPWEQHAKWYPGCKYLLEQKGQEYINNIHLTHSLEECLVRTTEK", "experiment": "XIAP BIR3 Smac Elisa", "format": "binding", "conditions": "concentration which displaces half of GST-BIR3 signal, IAP not given", "procedure": "as §1\n(§2) Compounds are incubated with GST-BIR3 fusion protein and biotinylated SMAC peptide (AVPFAQK) in stretavidin-coated 96-well plates. For XIAP BIR3 Smac Elisa, a GST-BIR3 fusion containing amino acids 248-358 from XIAP was used. For CIAP1 BIR3 Smac Elisa, a GST-BIR3 fusion containing amino acids 259-364 from CIAP1 was used. Following a 30-minute incubation, wells are extensively washed. The remaining GST-BIR3 fusion protein is monitored by ELISA assay involving first, incubation with goat anti-GST antibodies followed by washing and incubation with alkaline phosphatase conjugated anti-goat antibodies. Signal is amplified using Attophos (Promega) and read with Cytoflour Ex 450 nm/40 and Em 580 nm. IC50s correspond to concentration of compound which displaces half of GST-BIR3 signal. The IC50 for non-biotinylated Smac is 400 nM."}, "[3]": {"target": "T2, GST-BIR3 fusion containing amino acids 259-364 from CIAP1 (Homo sapiens, UniProt Q13490)", "T2 construct": "a GST-BIR3 fusion containing amino acids 259-364 from CIAP1 was used", "T2 sequence (Q13490 259-364)": "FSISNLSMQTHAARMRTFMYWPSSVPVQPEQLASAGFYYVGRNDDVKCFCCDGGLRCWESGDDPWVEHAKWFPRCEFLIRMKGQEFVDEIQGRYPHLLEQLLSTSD", "experiment": "CIAP1 BIR3 Smac Elisa", "format": "binding", "conditions": "concentration which displaces half of GST-BIR3 signal, IAP not given", "procedure": "as §1, §2"}}, "note": "Residues, ends and D or L forms follow the SMILES beside them."}
{"smiles": "CC[C@H](C)[C@H](NC(=O)[C@@H]1CCCN1C(=O)[C@@H](NC(=O)[C@H](C)N)C(C)C)C(=O)N[C@@H](C)C(=O)N[C@@H](CCC(N)=O)C(=O)N[C@@H](CCCCN)C(=O)O", "note": "[non-biotinylated Smac] (H-AVPIAQK-OH; N-terminus and C-terminus assumed)", "values": [{"measurement": "competing GST-BIR3 off the FMAT beads", "setting": "[1]; FIG. 2", "value": "highly effective"}, {"measurement": "IC50", "setting": "[1]; FMAT, displacement of GST-BIR3 from biotinylated Smac 7-mer peptide (AVPIAQK) beads", "value": 400, "unit": "nM"}, {"measurement": "IC50", "setting": "[2]", "value": 400, "unit": "nM"}, {"measurement": "IC50", "setting": "[3]", "value": 400, "unit": "nM"}]}
